pIC50, pKi: −log10 of the molar value. Structures can show the parent of a compound that is named as a salt. Where two headings read alike, the source gives them in different places.

One series concerns the target T1, human 5-HT1A receptors (Homo sapiens, UniProt P08908).
T1 construct: expressed in transfected cells; host or cells: CHO cells
T1 sequence (P08908 1-422): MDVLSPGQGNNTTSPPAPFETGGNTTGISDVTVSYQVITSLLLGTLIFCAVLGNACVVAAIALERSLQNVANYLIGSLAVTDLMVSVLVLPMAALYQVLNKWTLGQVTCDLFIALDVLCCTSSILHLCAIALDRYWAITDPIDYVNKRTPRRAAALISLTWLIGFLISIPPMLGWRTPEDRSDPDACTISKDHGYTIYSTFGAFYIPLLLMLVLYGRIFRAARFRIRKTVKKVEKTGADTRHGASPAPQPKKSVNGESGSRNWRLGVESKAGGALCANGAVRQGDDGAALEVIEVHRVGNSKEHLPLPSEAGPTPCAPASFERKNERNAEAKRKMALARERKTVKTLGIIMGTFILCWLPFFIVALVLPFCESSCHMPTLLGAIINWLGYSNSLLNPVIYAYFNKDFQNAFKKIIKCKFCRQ
Briefly: [3H] 8-OHDPAT displacement from 5-HT1A receptor in stably transfected CHO cells. The format is binding. From the text: High affinity for the serotonin 5-HT1A receptor was established by testing the claimed compound's ability to displace [^3H] 8-OHDPAT (dipropylaminotetralin) from the 5-HT1A serotonin receptor following a modification of the procedure of Hall et al., J. Neurochem. 44, 1685 (1985) which utilizes CHO cells stably transfected with human 5-HT1A receptors.

Another series addresses T2, serotonin transporter (Rattus norvegicus, UniProt P31652).
T2 construct: displace ^3H-paroxetine from male rat frontal cortical membranes; from tissue; host or cells: male rat frontal cortex membranes
Briefly: 3H-paroxetine displacement from male rat frontal cortical membranes (serotonin transporter affinity). It counts as binding.

Series [1] concerns the target T3, cloned human 5-HT1A receptors (Homo sapiens, UniProt P08908).
T3 construct: expressed in transfected cells
T3 sequence (P08908 1-422): T1 sequence (P08908 1-422)
The experiment in a line: 35S-GTPγS binding assay, antagonist activity at 5-HT1A receptors. It counts as biochemical. On the set-up: 5-HT1A Function Imax (maximum inhibitory effect): unit not given here. As to the method:
Antagonist activity at 5-HT1A receptors was established by using a ^35S-GTPγS binding assay similar to that used by Lazareno and Birdsall (Br. J. Pharmacol. 109: 1120, 1993), in which the test compound's ability to affect the binding of ^35S-GTPγS to membranes containing cloned human 5-HT1A receptors was determined. Agonists produce an increase in binding whereas antagonists produce no increase but rather reverse the effects of the standard agonist 8-OHDPAT. The test compound's maximum inhibitory effect is represented as the Imax, while its potency is defined by the IC50.

Setting [2] is: 35S-GTPγS binding, reversal of the effects of the standard agonist 8-OHDPAT.
The mark [3] stands for this setting: 35S-GTPγS binding, reversal of the effects of the standard agonist 8-OHDPAT, read-out: 5-HT1A Function IC50.

T2 sequence (P31652 whole entry): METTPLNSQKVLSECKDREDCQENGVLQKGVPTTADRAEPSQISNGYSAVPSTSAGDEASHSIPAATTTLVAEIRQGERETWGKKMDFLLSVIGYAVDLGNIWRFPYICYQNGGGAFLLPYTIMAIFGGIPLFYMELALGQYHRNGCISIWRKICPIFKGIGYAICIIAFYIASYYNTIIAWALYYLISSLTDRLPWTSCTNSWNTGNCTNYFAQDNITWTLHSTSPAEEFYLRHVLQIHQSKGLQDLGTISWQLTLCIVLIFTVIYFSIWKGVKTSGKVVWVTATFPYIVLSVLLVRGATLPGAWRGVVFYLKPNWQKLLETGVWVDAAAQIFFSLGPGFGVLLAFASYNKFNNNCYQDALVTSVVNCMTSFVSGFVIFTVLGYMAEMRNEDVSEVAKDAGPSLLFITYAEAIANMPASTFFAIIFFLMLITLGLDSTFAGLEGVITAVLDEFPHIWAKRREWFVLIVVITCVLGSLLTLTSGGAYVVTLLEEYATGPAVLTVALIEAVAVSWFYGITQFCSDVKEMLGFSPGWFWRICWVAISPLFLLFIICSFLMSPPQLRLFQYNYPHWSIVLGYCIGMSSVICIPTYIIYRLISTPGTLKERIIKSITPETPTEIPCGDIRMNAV

For orientation: melting point means the temperature of the solid-liquid transition. The compound `COc1cccc2c1OC(CN1CC=C(c3c[nH]c4ccccc34)CC1)CO2` (centres unmarked) (hydrate or solvate) [Example 5, 3-[1-(8-Methoxy-2,3-dihydro-benzo[1,4]dioxin-2-ylmethyl)-1,2,3,6-tetrahydro-pyridin-4-yl]-1H-indole] showed a melting point of 203 to 205 °C.
In general, pKi refers to the negative decadic logarithm of the Ki, by convention in mol/L. For orientation: pIC50 means the IC50 on a negative log10 scale, so that one unit is a factor of ten. Take `Fc1cccc2c1OC(CN1CC=C(c3c[nH]c4ccccc34)CC1)CO2` (centres unmarked) [Example 12, 3-(1-{[8-Fluoro-2,3-dihydro-1,4-benzodioxin-2-yl]methyl}-1,2,3,6-tetrahydropyridin-4-yl)-1H-indole]: the melting point was 174 to 177 °C. At human 5-HT1A receptors, the pKi is 7.45. The compound also had a pKi on serotonin transporter of 7.31. In series [1] (setting [2]), the “5-HT1A Function Imax (maximum inhibitory effect)” value is on record as “(76.0)”. In addition, the pIC50 in series [1] (setting [3]) was 6.28.
In turn, `Nc1ccc2c(c1)OCC(CN1CC=C(c3c[nH]c4ccc(F)cc34)CC1)O2` (centres unmarked) [Example 6, 2-[4-(5-Fluoro-1H-indol-3-yl)-3,6-dihydro-2H-pyridin-1-ylmethyl]-2,3-dihydro-benzo[1,4]dioxin-6-ylamine] gave a melting point of 172 to 174 °C. On human 5-HT1A receptors, this compound had a pKi of 7.33. Further, the pKi at serotonin transporter was 9.47. Further, in series [1] (setting [2]), the “5-HT1A Function Imax (maximum inhibitory effect)” value is “(96.7)”. Further, the pIC50 in series [1] (setting [3]) is 6.39.
On the same counts, the results for `COc1cccc2c1OC(CN1CC=C(c3c[nH]c4cc(F)ccc34)CC1)CO2` (centres unmarked) [Example 9, 6-Fluoro-3-[1-(8-methoxy-2,3-dihydro-1,4-benzodioxin-2-ylmethyl)-1,2,3,6-tetrahydro-pyridin-4-yl]-1H-indole] are 184 to 185 °C, 8.31, 9.22, “(80.0)” and 6.57.
For the compound `Fc1ccc2[nH]cc(C3=CCN(CC4COc5ccccc5O4)CC3)c2c1` (centres unmarked) [Example 2, 5-Fluoro-3-[4-[1,2,3,6-tetrahydro-1-[2-(2,3-dihydro[1,4]benzodioxinyl)]methyl]pyridinyl]indole], the pKi is 7.17 on human 5-HT1A receptors and 7.80 on serotonin transporter.
`NC(=O)c1cccc2c1OC(CN1CC=C(c3c[nH]c4ccccc34)CC1)CO2` (centres unmarked) [Example 10, 3-[4-(1H-Indol-3-yl)-3,6-dihydro-2H-pyridin-1-ylmethyl]-2,3-dihydro-benzo[1,4]dioxine-5-carboxylic Acid Amide]: the melting point was in the range of 175 to 178 °C. Also, the pKi at human 5-HT1A receptors was 7.19. The compound further showed a pKi on serotonin transporter of 8.30. The “5-HT1A Function Imax (maximum inhibitory effect)” value in series [1] (setting [2]) was “(61.0)”. Besides, the negative logarithm of the IC50 (pIC50) in series [1] (setting [3]) is 5.89.
Take `COc1cccc2c1OC(CN1CC=C(c3c[nH]c4ccccc34)CC1)CO2` (centres unmarked) [Example 5, 3-[1-(8-Methoxy-2,3-dihydro-benzo[1,4]dioxin-2-ylmethyl)-1,2,3,6-tetrahydro-pyridin-4-yl]-1H-indole]: the pKi on human 5-HT1A receptors was 8.55; at serotonin transporter it was 9.77. Further, the “5-HT1A Function Imax (maximum inhibitory effect)” value in series [1] (setting [2]) is on record as “(89.3)”. The pIC50 in series [1] (setting [3]) was 7.24.
For `COc1ccc2[nH]cc(C3=CCN(CC4COc5ccccc5O4)CC3)c2c1` (centres unmarked) (as salt: oxalate) [Example 1, 5-Methoxy-3-[4-[1,2,3,6-tetrahydro-1-[2-(2,3-dihydro[1,4]benzodioxinyl)]methyl]pyridinyl]indole], the melting point is 120 °C (dec.).
`COc1cccc2c1O[C@@H](CN1CC=C(c3c[nH]c4ccc(F)cc34)CC1)CO2` (as salt: oxalate) [Example 14, 5-Fluoro-3-[1-(8-methoxy-2,3-dihydro-benzo[1,4]dioxin-2-ylmethyl)-1,2,3,6-tetrahydro-pyradin-4-yl]-1H-indole] came in with a melting point of 154 to 156 °C.
For the compound `Nc1ccc2c(c1)O[C@@H](CN1CC=C(c3c[nH]c4ccccc34)CC1)CO2` (single isomer, unassigned) [Example 3], the values for the pKi on human 5-HT1A receptors and on serotonin transporter were 7.51 and 8.94, respectively. The pIC50 in series [1] was 6.63. Besides, in series [1] (setting [2]), the “5-HT1A Function Imax (maximum inhibitory effect)” value is given as “(96.0)”.
`COc1cccc2c1O[C@@H](CN1CC=C(c3c[nH]c4ccc(F)cc34)CC1)CO2` [Example 14, 5-Fluoro-3-[1-(8-methoxy-2,3-dihydro-benzo[1,4]dioxin-2-ylmethyl)-1,2,3,6-tetrahydro-pyradin-4-yl]-1H-indole]: the figures for the pKi on human 5-HT1A receptors and at serotonin transporter were 8.07 and 8.75, respectively. In addition, in series [1] (setting [2]), the “5-HT1A Function Imax (maximum inhibitory effect)” value is reported as “(100)”. Also, the pIC50 in series [1] (setting [3]) is 7.15.
On to `Nc1ccc2c(c1)OCC(CN1CC=C(c3c[nH]c4ccccc34)CC1)O2` (single isomer, unassigned) [Example 3, 3-[4-(1H-Indol-3-yl)-3,6-dihydro-2H-pyridin-1-ylmethyl]-2,3-dihydro-benzo[1,4]dioxin-7-ylamine], for which the melting point lay within 204 to 206 °C.
With `COc1cccc2c1OC(CN1CC=C(c3c[nH]c4ccc(C#N)cc34)CC1)CO2` (centres unmarked) [Example 7, 3-[1-(8-Methoxy-2,3-dihydro-benzo[1,4]dioxin-2-ylmethyl)-1,2,3,6-tetrahydro-pyridin-4-yl]-1H-indole-5-carbonitrile], the figures for the pKi at human 5-HT1A receptors and on serotonin transporter were 8.10 and 8.98, respectively. In addition, in series [1] (setting [2]), the “5-HT1A Function Imax (maximum inhibitory effect)” value is listed as “(100)”. The pIC50 in series [1] (setting [3]) is 7.08.
Take `COc1cccc2c1OC(CN1CC=C(c3c[nH]c4ccc(C#N)cc34)CC1)CO2` (centres unmarked) (as salt: hydrochloride) (hydrate or solvate) [Example 7, 3-[1-(8-Methoxy-2,3-dihydro-benzo[1,4]dioxin-2-ylmethyl)-1,2,3,6-tetrahydro-pyridin-4-yl]-1H-indole-5-carbonitrile]: the melting point lay within 235 to 238 °C.
Still for that read-out and setting: for `Fc1ccc2[nH]cc(C3=CCN(CC4COc5ccccc5O4)CC3)c2c1` (centres unmarked) (as salt: oxalate) [Example 2, 5-Fluoro-3-[4-[1,2,3,6-tetrahydro-1-[2-(2,3-dihydro[1,4]benzodioxinyl)]methyl]pyridinyl]indole] the value was 145 °C (dec.).
`NC(=O)c1cccc2c1OC(CN1CC=C(c3c[nH]c4ccc(F)cc34)CC1)CO2` (centres unmarked) [Example 11, 3-[4-(5-Fluoro-1H-indol-3-yl)-3,6-dihydro-2H-pyridin-1-ylmethyl]-2,3-dihydro-benzo[1,4]dioxine-5-carboxylic Acid Amide] displayed a melting point of 195 to 197 °C. The same compound showed a pKi at human 5-HT1A receptors of 7.15. The pKi on serotonin transporter was 8.50. Besides, the “5-HT1A Function Imax (maximum inhibitory effect)” value in series [1] (setting [2]) is given as “(60.0)”. The pIC50 in series [1] (setting [3]) was 6.13.
`COc1ccc2c(c1)OC(CN1CC=C(c3c[nH]c4ccccc34)CC1)CO2` (centres unmarked) [Example 13, 3-(1-{[7-Methoxy-2,3-dihydro-1,4-benzodioxin-2-yl]methyl}-1,2,3,6-tetrahydropyridin-4-yl)-1H-indole] registered a melting point of 166 to 168 °C. For the same compound, the pKi on human 5-HT1A receptors was 7.76. The pKi on serotonin transporter was 7.40. Also, the “5-HT1A Function Imax (maximum inhibitory effect)” value in series [1] (setting [2]) was “(100)”. The pIC50 in series [1] (setting [3]) is 6.28.
On to `Nc1ccc2c(c1)OCC(CN1CC=C(c3c[nH]c4ccccc34)CC1)O2` (centres unmarked) [Example 4, 2-[4-(1H-Indol-3-yl)-3,6-dihydro-2H-pyridin-1-ylmethyl]-2,3-dihydro-benzo[1,4]dioxin-6-ylamine], for which the melting point lay in the range of 199 to 200 °C. Also, at human 5-HT1A receptors (displacement of [3H] 8-OHDPAT, CHO cells stably transfected with human 5-HT1A receptors, read-out: 5-HT1A Receptor Affinity KI), the pKi is 6.88. Besides, the negative-log Ki (pKi) on serotonin transporter was 8.69. In series [1] (setting [2]), the “5-HT1A Function Imax (maximum inhibitory effect)” value is “(90.0)”. Besides, in series [1] (setting [3]), the negative logarithm of the IC50 (pIC50) was 6.62.
`COc1ccc2[nH]cc(C3=CCN(CC4COc5ccccc5O4)CC3)c2c1` (centres unmarked) [Example 1, 5-Methoxy-3-[4-[1,2,3,6-tetrahydro-1-[2-(2,3-dihydro[1,4]benzodioxinyl)]methyl]pyridinyl]indole] gave a pKi on human 5-HT1A receptors of 7.57.
In turn, `COc1cccc2c1O[C@@H](CN1CC=C(c3c[nH]c4ncccc34)CC1)CO2` [Example 8, 3-[1-(8-Methoxy-2,3-dihydro-benzo[1,4]dioxin-2-ylmethyl)-1,2,3,6-tetrahydro-pyridin-4-yl]-1H-pyrrole[2,3-b]pyridine] registered a melting point of 207 to 210 °C. Besides, the pKi at human 5-HT1A receptors was 8.37. The same compound had a pKi on serotonin transporter of 7.41. The “5-HT1A Function Imax (maximum inhibitory effect)” value in series [1] (setting [2]) is listed as “(94.0)”. The pIC50 in series [1] (setting [3]) was 7.59.

The record behind these values is patent US7041683B2 (Wyeth, priority 2001, dated 2006).
